Measurements as given in US7872025B2 (Bridge Pharma, Inc., priority 1999, dated 2011).
“Also recorded” adds a separate entry of the source.

What was measured:
histamine H-2 = histamine H-2 (Homo sapiens, UniProt P25021); experiment: Histamine H-2 antagonism (no method given)
mice = experiment: Sedative side effects (physostigmine-induced lethality test); conditions: mouse, in vivo
Protocol: The physostigmine-induced lethality test is being used in the present studies. […] In the present study, test compounds are administered orally 60 minutes prior to physostigmine. The numbers of survivors are counted 30 minutes after physostigmine administration.

histamine H1-receptor = molecular target: T1, histamine H1-receptor (Cavia porcellus, UniProt P31389); experiment: Binding to histaminergic receptors (3H-pyrilamine binding); parameters: species or system guinea pig
T1 construct: from tissue; host or cells: guinea pig cerebellum membranes
Protocol: Briefly, membranes from guinea pig cerebellum are incubated with ^3H-pyrilamine and varying concentrations of the test compound(s). The specific binding of the radioactive ligand to the receptor is defined as the difference between total binding and nonspecific binding, determined in the presence of an excess of unlabelled ligand. The results are expressed as percentage of specific binding in the presence of compounds. […] These parameters are obtained by Hill equation curve fitting using Sigmaplot™ software.

[1] = test system: bronchial or other smooth muscle tissues; experiment: Antihistaminic effects in vitro (histamine contractions of smooth muscle strips); parameters: species or system guinea pigs; conditions: listed as racemic norketotifen
Protocol: Strips of bronchial or other smooth muscle tissues are removed from the body of male guinea pigs weighing 400-600 g. The tissues are suspended in an oxygenated buffer of the composition (mM): NaCl, 133; KCl, 4.7; CaCl2, 2.5; MgSO4, 0.6; NaH2PO4, 1.3; NaHCO3, 16.3; and glucose, 7.7, or in a solution of a similar composition. The solution is maintained at 37.5 C. Contractions are recorded with isometric transducers (Model FT-10) on a Grass polygraph.
In order to assess the viability of each tissue and to serve as a frame of reference, contractions of each strip of tissue are recorded initially in response to exposure to an oxygenated buffer in which the NaCl is replaced by KCl to yield a concentration of 137.7 mM KCl. This is followed by return to the standard oxygenated buffer, and then by exposures to progressively increasing concentrations of histamine, with separate exposures to each concentration only until the peak response has been recorded. Then, leaving one tissue strip untreated, the remaining strips each are exposed for a predetermined time interval to one concentration of an antagonist. Finally, the responses to increasing concentrations of histamine followed by exposure to 137.7 mM KCl are recorded a second time.

inflammation = experiment: Anti-inflammatory effects (bronchial eosinophil accumulation; mouse ear croton oil inflammation); conditions: in vivo
Protocol: Inhibition of eosinophil accumulation in lung is determined in sensitized guinea pigs (400 to 600 grams) following intraperitoneal injection of an allergen such as for example PAF (platelet aggregating factor) or bovine serum albumin. At a predetermined time thereafter, the animals are killed with a barbiturate. The trachea is exposed and cannulated. 6×10 ml aliquots of buffered modified Tyrode's solution (composition: NaHCO3 11.9, NaCl 136.9, KCl 2.7, Na2HPO4 0.4, glucose 5.6, EDTA 19.8, gelatin 0.1% w/v; pH 7.4) are introduced successively and aspirated by gentle compression of the lungs. Total fluid recovery normally exceeds 80%. Cell suspensions are concentrated by low speed centrifugation (200 G for 10 min) and the resulting cell pellet is resuspended in 1 ml modified Tyrode's solution. Total cell counts are made by diluting 10 μl of cell suspension in 90 μl of Turk's fluid. Differential cell counts are made from smears fixed in methanol (100%) and stained in Leishman stain. A total of at least 500 cells per smear are counted at 1000 fold magnification, in order to differentiate cell types. Drugs are administered as sustained subcutaneous infusions from an implanted Alza minipump (Alzet 2001 or similar) or by repeated oral or repeated parenteral injections.
Dermal antiinflammatory effects are tested using the mouse ear croton oil inflammation method. This test method is based on Tarrida, J. et al., Meth. Find. Exp. Clin. Pharmacol. (1996) 18(4):233-234 and Blazzo, et al., Prostaglandins (1995) 50:161-168. In short, male mice (25-30 g) are treated with 5 ml/kg of a 2 mg/ml solution of each test compound in physiological saline by intraperitoneal injection. Thirty minutes after injection, croton oil (0, 20 μl of 1.0% croton oil in acetone) or acetone (control) is topically applied to both ears of each mouse. Animals are restrained during croton oil or acetone application and then released into a cage. Before and at predetermined time intervals following croton oil or acetone application, groups of animals are anesthetized with halothane and euthanized by cervical dislocation. […]

T1 sequence (P31389 whole entry): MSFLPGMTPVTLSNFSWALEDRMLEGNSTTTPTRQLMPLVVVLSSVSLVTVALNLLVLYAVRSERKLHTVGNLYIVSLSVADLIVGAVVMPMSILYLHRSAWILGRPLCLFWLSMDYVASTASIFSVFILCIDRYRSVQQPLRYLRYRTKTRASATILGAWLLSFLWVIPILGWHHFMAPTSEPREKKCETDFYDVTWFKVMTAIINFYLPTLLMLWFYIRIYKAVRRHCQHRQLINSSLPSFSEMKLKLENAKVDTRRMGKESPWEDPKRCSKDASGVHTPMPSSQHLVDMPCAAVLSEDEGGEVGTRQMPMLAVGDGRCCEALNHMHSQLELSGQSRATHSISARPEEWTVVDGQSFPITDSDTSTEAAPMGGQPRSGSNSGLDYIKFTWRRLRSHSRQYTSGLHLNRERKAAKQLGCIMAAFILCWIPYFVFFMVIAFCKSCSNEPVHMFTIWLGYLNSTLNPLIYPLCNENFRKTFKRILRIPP
Sequence of histamine H-2 (P25021 whole entry): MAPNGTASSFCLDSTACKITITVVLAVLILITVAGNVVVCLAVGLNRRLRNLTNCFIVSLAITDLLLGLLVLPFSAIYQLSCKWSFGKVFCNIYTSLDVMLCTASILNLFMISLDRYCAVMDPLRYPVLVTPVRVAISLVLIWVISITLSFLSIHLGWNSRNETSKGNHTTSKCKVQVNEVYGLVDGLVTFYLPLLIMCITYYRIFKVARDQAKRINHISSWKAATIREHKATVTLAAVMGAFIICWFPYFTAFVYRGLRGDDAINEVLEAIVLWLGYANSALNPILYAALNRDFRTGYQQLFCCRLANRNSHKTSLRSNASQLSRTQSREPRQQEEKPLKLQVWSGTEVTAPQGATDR

CN1CCC(=C2c3ccccc3CC(=O)c3sccc32)CC1 (racemic) [ketotifen, 4-(1-methyl-4-piperidyline)-4H-benzo(4,5) cyclohepta-(1,2-b) thiophene-10-one, reference compound]
histamine H-2 antagonism (histamine H-2): varying degree of histamine H-2 antagonism | sedative side effects (mice): severe and dose-limiting sedative activity

O=C1Cc2ccccc2C(=C2CCNCC2)c2ccsc21 (racemic) [nor-ketotifen]
histamine H-1 receptor antagonism / blockade (histamine H1-receptor): histamine H-1 antagonists | histamine H-2 antagonism (histamine H-2): varying degree of histamine H-2 antagonism | antihistaminic effects [1]: qualitatively similar to the antihistaminic effects of racemic ketotifen; also recorded: potent anti-inflammatory and anti-histaminic properties | anti-inflammatory effect (inflammation): potent anti-inflammatory and anti-histaminic properties | sedative side effects (mice): little or no sedative side effect

CN1CCC(=C2c3ccccc3CC(O)c3sccc32)CC1 (stereo not drawn) [10-hydroxy-ketotifen]
histamine H-1 receptor antagonism / blockade (histamine H1-receptor): block histamine H-1 receptors | anti-inflammatory effect (inflammation): inhibit inflammation | sedative side effects (mice): significantly less sedation than ketotifen

OC1Cc2ccccc2C(=C2CCNCC2)c2ccsc21 (stereo not drawn) [10-hydroxy-norketotifen]
histamine H-1 receptor antagonism / blockade (histamine H1-receptor): block histamine H-1 receptors | anti-inflammatory effect (inflammation): inhibit inflammation | sedative side effects (mice): significantly less sedation than ketotifen

CN1CCC(=C2c3ccccc3CC(=O)c3sccc32)CC1 [R(+)-ketotifen]
sedative side effects (mice): almost all the sedative side effects were found to reside in R(+)-ketotifen

CN1CCC(=C2c3ccccc3CC(=O)c3sccc32)CC1 [S-isomer of ketotifen]
sedative side effects (mice): not causing the severe sedative side effects of ketotifen
